US8637558B2 (Industry-Academic Cooperation Foundation, Chosun University, priority 2008, dated 2014)

Biological target: 15-PGDH (Homo sapiens (Human), UniProt P15428)
Assay: Assay for the activities of 15-PGDH inhibitors (formation of NADH at 340 nm)
Type: biochemical
Details: purified 15-PGDH enzyme, 21 μM PGE2, 0.25 mM NAD+, pH 7.5; concentration inhibiting 50% of 15-PGDH activity
Protocol: <1-1> Expression and Purification of 15-PGDH
A 15-PGDH cDNA plasmid containing BamHI and EcoRI sites of the pGES-2T expression vector was used to transform Escherichia coli BL-21 lysS in accordance with the ordinarily used in the art. The transformed cells were grown in 500 mL LB medium containing 50 μg/mL ampicillin at 37° C. while being stirred at 220 rpm until the OD600 reached 0.6. Isopropyl β-D-thiogalactoside (1 mM) was added and the cells were allowed to grow for 12 hours at 25° C. Then, the pellets were harvested by centrifugation at 4000×g for 30 minutes at 4° C. The cell pallets were resuspended in 20 mL cell lysis buffer (1×PBS buffer (pH 7.4) containing 1 mM EDTA and 0.1 mM DTT) and sonicated (14×10 s at 4° C.). The disrupted cells were centrifuged at 4000×g for 20 minutes at 4° C. The supernatant was loaded slowly on a glutathione-sepharose 4B column, which was equilibrated at 4° C. with a cell lysis buffer (1×PBS buffer (pH 7.4) containing 1 mM EDTA and 0.1 mM DTT). The column was washed with the lysis buffer until OD280 reached below 0.005. Then, 15-PGDH was eluted from the glutathione-sepharose 4B column at room temperature for 5 minutes by using the elution buffer (50 mM Tris-HCl (pH 8.0) containing 10 mM reduced glutathione, 1 mM EDTA and 0.1 mM DTT). The concentration and the purity of the purified enzyme were determined by SDS-PAGE.
<1-2> Assay for the Activities of 15-PGDH Inhibitors
The absorbance of the reaction mixture was recorded at 340 nm so that the activities of the derivatives according to the present invention as 15-PGDH inhibitors were determined from a standard curve prepared from the absorbance of various concentrations of NADH at 340 nm.

15-PGDH, sequence (P15428 whole entry): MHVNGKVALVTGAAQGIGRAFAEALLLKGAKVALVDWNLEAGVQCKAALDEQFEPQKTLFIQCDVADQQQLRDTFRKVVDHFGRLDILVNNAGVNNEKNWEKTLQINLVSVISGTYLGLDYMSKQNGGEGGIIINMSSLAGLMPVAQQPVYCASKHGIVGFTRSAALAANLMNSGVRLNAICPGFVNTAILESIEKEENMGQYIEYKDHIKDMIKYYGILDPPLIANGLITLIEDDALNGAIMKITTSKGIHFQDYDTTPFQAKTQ

IC50 | SMILES
50.9 nM | O=C1NC(=O)/C(=C/c2ccc(OCCC3CCCCC3)cc2)S1 [Derivative 46, 5-(4-(2-cyclohexylethoxy)benzylidene)thiazolidine-2,4-dione]
59.5 nM | O=C1NC(=O)/C(=C/c2ccc(OCCC3CCCCC3)c([N+](=O)[O-])c2)S1 [Derivative 49, 5-(4-(2-cyclohexylethoxy)-3-nitrobenzylidene)thiazolidine-2,4-dione]
286 nM | Nc1cc(/C=C2\SC(=O)NC2=O)ccc1OCCC1CCCCC1 [Derivative 50, 5-(3-amino-4-(2-cyclohexylethoxy)benzylidene)thiazolidine-2,4-dione]
49.8 nM | Cc1cc(/C=C2\SC(=O)NC2=O)ccc1OCC1CCCCC1 [Derivative 51, 5-(4-(2-cyclohexylmethoxy)-3-methylbenzylidene)thiazolidine-2,4-dione]
> 20000 nM | O=C1NC(=O)/C(=C/c2ccc(Oc3ccccc3)cc2)S1 [Derivative 54, 5-(4-phenoxybenzylidene)-1,3-thiazolidine-2,4-dione]
117 nM | O=C1NC(=O)/C(=C/c2ccc(OCCc3ccccc3)cc2)S1 [Derivative 55, 5-[4-(2-phenylethoxy)benzylidene]-1,3-thiazolidine-2,4-dione]
259 nM | CCOc1cc(/C=C2\SC(=O)NC2=O)ccc1OCCC1CCCCC1 [Derivative 59, 5-(4-(2-cyclohexylethoxy)-3-ethoxybenzylidene)thiazolidine-2,4-dione]
3560 nM | COc1cc(OCCC2CCCCC2)ccc1/C=C1\SC(=O)NC1=O [Derivative 60, 5-(4-(2-cyclohexylethoxy)-2-methoxybenzylidene)thiazolidine-2,4-dione]
172 nM | O=C1NC(=O)/C(=C/c2ccc(OCC3COc4ccccc4O3)cc2)S1 (centres unmarked) [Derivative 62, 5-(4-((2,3-Dihydrobenzo[b][1,4]dioxin-2-yl)methoxy)benzylidene) thiazolidine-2,4-dione]
57.6 nM | O=C1NC(=O)/C(=C/c2cccc(OCC3CCCCC3)c2Cl)S1 [Derivative 63, 5-(2-chloro-3-(cyclohexylmethoxy)benzylidene)thiazolidine-2,4-dione]
59 nM | O=C1NC(=O)/C(=C/c2cccc(OCCCC3CCCCC3)c2Cl)S1 [Derivative 64, 5-(2-chloro-3-(cyclohexylpropoxy)benzylidene)thiazolidine-2,4-dione]
31.4 nM | CC1CCC(COc2ccc(/C=C3\SC(=O)NC3=O)cc2C(F)(F)F)CC1 (centres unmarked) [Derivative 65, 5-[4-((4-methylcyclohexyl)methoxy)-3-(trifluoromethyl)benzylidene]thiazolidine-2,4-dione]
20.4 nM | COC(=O)C1CCC(COc2ccc(/C=C3\SC(=O)NC3=O)cc2)CC1 (centres unmarked) [Derivative 66, methyl-4-((4-((2,4-dioxothiazolidine-5-ylidene)methyl)phenoxy)methyl)cyclohexane carboxylate]
1160 nM | COc1ccc(/C=C2\SC(=O)NC2=O)cc1OCCC1CCCCC1 [Derivative 67, 5-(3-(2-cyclohexylethoxy)-4-methoxybenzylidene)thiazolidine-2,4-dione]
19.8 nM | O=C1NC(=O)/C(=C/c2ccc(OCCc3ccccc3)c(Cl)c2)S1 [Derivative 69, 5-(3-chloro-4-phenylethoxybenzylidene)thiazolidine-2,4-dione]
38.1 nM | O=C1NC(=O)/C(=C/c2ccc(OCCCc3ccccc3)c(Cl)c2)S1 [Derivative 70, 5-(3-chloro-4-(3-phenylpropoxy)benzylidene)thiazolidine-2,4-dione]
122 nM | O=C1NC(=O)/C(=C/c2cccc(OCCc3ccccc3)c2Cl)S1 [Derivative 73, 5-(2-chloro-3-phenylethoxybenzylidene)thiazolidine-2,4-dione]
44.9 nM | O=C1NC(=O)/C(=C/c2cccc(OCCCc3ccccc3)c2Cl)S1 [Derivative 75, 5-(2-chloro-3-(3-phenylpropoxy)benzylidene)thiazolidine-2,4-dione]
814 nM | O=C1NC(=O)/C(=C/c2ccc(OCc3ccc(-c4ccccc4)cc3)cc2)S1 [Derivative 76, 5-(4-(biphenyl-4-ylmethoxy)benzylidene)thiazolidine-2,4-dione]
177 nM | O=C1NC(=O)/C(=C/c2cc(F)c(OCCC3CCCCC3)c(Cl)c2)S1 [Derivative 77, 5-(3-chloro-5-fluoro-4-(2-cyclohexylethoxy)benzylidene)thiazolidine-2,4-dione]

IC50 | SMILES
50.6 nM | COc1cc(/C=C2\SC(=O)NC2=O)cc(Cl)c1OCCC1CCCCC1 [Derivative 78, 5-(3-chloro-4-(2-cyclohexylethoxy)-5-methoxybenzylidene) thiazolidine-2,4-dione]
2820 nM | O=C1NC(=O)/C(=C/c2ccc([N+](=O)[O-])c(OCCC3CCCCC3)c2)S1 [Derivative 79, 5-(3-(2-cyclohexylethoxy)-4-nitrobenzylidene)thiazolidine-2,4-dione]
110 nM | COc1ccc(/C=C2\SC(=O)NC2=O)c(Cl)c1OCCC1CCCCC1 [Derivative 80, 5-(2-chloro-3-(2-cyclohexylethoxy)-4-methoxybenzylidene) thiazolidine-2,4-dione]
136 nM | O=C1NC(=O)/C(=C/c2ccc(OCCC3CCCCC3)cc2C(F)(F)F)S1 [Derivative 81, 5-(4-(2-cyclohexylethoxy)-2-(trifluoromethyl)benzylidene)thiazolidine-2,4-dione]
6280 nM | O=C1NC(=O)/C(=C/c2cc(OCCC3CCCCC3)ccc2[N+](=O)[O-])S1 [Derivative 83, 5-(5-(2-cyclohexylethoxy)-2-nitrobenzylidene)thiazolidine-2,4-dione]
487 nM | O=C1NC(=O)/C(=C/c2ccc(OCc3ccccc3)cc2Cl)S1 [Derivative 85, 5-(4-(benzyloxy)-2-chlorobenzylidene)thiazolidine-2,4-dione]
178 nM | O=C1NC(=O)/C(=C/c2ccc(OCCc3ccccc3)cc2Cl)S1 [Derivative 86, 5-(2-chloro-4-phenylethoxybenzylidene)thiazolidine-2,4-dione]
52 nM | O=C1NC(=O)/C(=C/c2ccc(OCCCc3ccccc3)cc2Cl)S1 [Derivative 87, 5-(2-chloro-4-phenylpropoxybenzylidene)thiazolidine-2,4-dione]
2450 nM | O=C1NC(=O)/C(=C/c2ccc(OCCN3CCS(=O)(=O)CC3)c([N+](=O)[O-])c2)S1 [Derivative 90, 5-[3-nitro-4-(2-thiomorpholine1,1-Dioxideethoxy)benzylidene]-2,4-thiazolidinedione]
135 nM | CC1CCC(COc2cccc(/C=C3\SC(=O)NC3=O)c2Cl)CC1 (centres unmarked) [Derivative 91, 5-{2-chloro-3-[(4-methylcyclohexyl)methoxy]benzylidene}-1,3-thiazolidine-2,4-dione]
10300 nM | O=C1NC(=O)/C(=C/c2cccc(OCCc3ccccn3)c2Cl)S1 [Derivative 93]
2740 nM | CC(C)OCCOc1ccc(/C=C2\SC(=O)NC2=O)cc1Cl [Derivative 94, 5-{3-chloro-4-[2-(propan-2-yloxy)ethoxy]benzylidene}-1,3-thiazolidine-2,4-dione]
233 nM | O=C1NC(=O)/C(=C/c2ccc(OC3CCCCC3)cc2Cl)S1 [Derivative 95, 5-(2-chloro-4-(cyclohexyloxy)benzylidene)thiazolidine-2,4-dione]
2450 nM | O=C1NC(=O)/C(=C/c2ccc(OCC3CCCCC3)cc2Cl)S1 [Derivative 96, 5-(2-chloro-4-(3-cyclohexylmethoxy)benzylidene)thiazolidine-2,4-dione]
284 nM | O=C1NC(=O)/C(=C/c2ccc(OCCCC3CCCCC3)cc2Cl)S1 [Derivative 97, 5-(2-chloro-4-(3-cyclohexylpropoxy)benzylidene)thiazolidine-2,4-dione]
212 nM | O=C1NC(=O)/C(=C/c2cccc(OC3CCCCC3)c2Cl)S1 [Derivative 99, 5-(2-chloro-3-(cyclohexyloxy)benzylidene)thiazolidine-2,4-dione]
84.1 nM | O=C1NC(=O)/C(=C/c2ccc(OCCc3cccs3)c(Cl)c2)S1 [Derivative 101, 5-(3-chloro-4-(2-(thiophen-2-yl)ethoxy)benzylidene)thiazolidine-2,4-dione]
682 nM | COc1cc(/C=C2\SC(=O)NC2=O)ccc1OCCc1cccs1 [Derivative 102, 5-(3-methoxy-4-(2-(thiophen-2-yl)ethoxy)benzylidene)thiazolidine-2,4-dione]
1670 nM | COc1ccc(/C=C2\SC(=O)NC2=O)cc1OCCc1cccs1 [Derivative 103, 5-(4-methoxy-3-(2-(thiophen-2-yl)ethoxy)benzylidene)thiazolidine-2,4-dione]
8910 nM | O=C1NC(=O)/C(=C/c2ccc(OCCc3ccccn3)cc2Cl)S1 [Derivative 104]

SMILES | IC50
O=C1NC(=O)/C(=C/c2cccc(OCCCCC3CCCCC3)c2Cl)S1 [Derivative 100, 5-(2-chloro-3-(cyclohexylbutoxy)benzylidene)thiazolidine-2,4-dione] | 94.5 nM
